Test results taken from paper PMC7179227, “Antigenotoxic, Anti-photogenotoxic, and Antioxidant Properties of Polyscias filicifolia Shoots Cultivated In Vitro” (Molecules, 2020).
Where two headings read alike, the source gives them in different places.

Key:
[1] = test system: MMC genotoxicity; settings: CGA 5 and 50 μM, MMC 0.9 μM (0.3 μg/mL); cited from earlier work
[2] = test system: S. typhimurium TA1535/pSK1002
Experimental: Metabolic activation was obtained with S9 fraction prepared from livers of male Sprague Dawley rats. […] After isolation, the evaluation of cytochrome p450 level was performed and samples were stored at −80 ^∘ C. The S9 mix was prepared according to the method described by Maron and Ames.
(§1) IR was calculated on the basis of spectrophotometric measurement.

[3] = test system: S. typhimurium TA1535/pSK1002; remark: listed apart in the source
Experimental: as §1
The anti-photogenotoxicity was determined using chlorpromazine (CPZ) as an agent inducing genotoxic response under UVA irradiation by forming an unstable promazyl radical which is able to bind to DNA [62]. The protocol developed by Skrzypczak et. al was applied. […] The rate of anti-photogenotoxicity was calculated using the same formula as the rate of antigenotoxicity.

[4] = test system: S. typhimurium TA1535/pSK1002; format: cell-based, Salmonella typhimurium
Experimental: as §1

[5] = test system: S. typhimurium TA1535/pSK1002; settings: −S9, highest tested concentration 10 μg/mL
Experimental: as §1

[6] = test system: S. typhimurium TA1535/pSK1002; settings: mixture with 4NQO 0.05 μg/mL
Experimental: Salmonella typhimurium strain TA1535/pSK1002 was purchased from Deutsche Sammlung von Mikroorganismen und Zellkulturen GmbH (DSMZ, Germany).
The strain used in the test carries the fusion of umuC and lacZ genes, which are placed at the plasmid pSK1002. […] In the present study, the umu-test was carried out in the micro-plate variant according to the ISOguideline [61]. β -galactosidase activity of the tested compound was presented as induction ratio (IR). IR was calculated as the β -galactosidase activity of the tested compound relative to the negative control.
IR was calculated on the basis of spectrophotometric measurement. The absorption at 420 nm indicated the intensity of the enzymatic reaction, and the optical density at 600 nm indicated the bacteria growth. The measurements were performed with an Asys UVM340 Hightech microplate spectrophotometer.
At the same time, the genotoxicity of PhAs (10 μ g/mL) and EXTs (0.25–2 mg/mL) was investigated.

[7] = test system: S. typhimurium TA98 strain; settings: against 4NQO; cited from earlier work
[8] = mixture with CPZ 5 μg/mL, UVA, PhA 5 μg/mL
[9] = mixture with CPZ 5 μg/mL, UVA, PhA 10 μg/mL
[10] = mixture with CPZ 5 μg/mL, UVA, PhA […]
[11] = mixture with CPZ 10 μg/mL, UVA, PhA 5 μg/mL
[12] = mixture with CPZ 10 μg/mL, UVA, PhA 10 μg/mL
[13] = mixture with CPZ 10 μg/mL, UVA, PhA […]
[14] = +S9, highest tested concentration 10 μg/mL
[15] = mixture with 2AA 1 μg/mL, PhA concentration 0.3125 (mg/mL)
[16] = mixture with 2AA 1 μg/mL, PhA concentration 0.625 (mg/mL)
[17] = mixture with 2AA 1 μg/mL, PhA concentration 1.25 (mg/mL)
[18] = mixture with 2AA 1 μg/mL, PhA concentration 2.5 (mg/mL)
[19] = mixture with 2AA 1 μg/mL, PhA concentration 5 (mg/mL)
[20] = mixture with 2AA 1 μg/mL, PhA concentration 10 (mg/mL)
[21] = mixture with 2AA 10 μg/mL, PhA concentration 0.3125 (mg/mL)
[22] = mixture with 2AA 10 μg/mL, PhA concentration 0.625 (mg/mL)
[23] = mixture with 2AA 10 μg/mL, PhA concentration 1.25 (mg/mL)
[24] = mixture with 2AA 10 μg/mL, PhA concentration 2.5 (mg/mL)
[25] = mixture with 2AA 10 μg/mL, PhA concentration 5 (mg/mL)
[26] = mixture with 2AA 10 μg/mL, PhA concentration 10 (mg/mL)
[27] = mixture with MMC 0.004 μg/mL, PhA 5 μg/mL
[28] = mixture with MMC 0.004 μg/mL, PhA 10 μg/mL
[29] = mixture with MMC 0.004 μg/mL, PhA […]
[30] = mixture with MMC 0.02 μg/mL, PhA 5 μg/mL
[31] = mixture with MMC 0.02 μg/mL, PhA 10 μg/mL
[32] = mixture with MMC 0.02 μg/mL, PhA […]

Compound	Anti-Photogenotox. ([3]; CPZ 5 μg/mL, UVA, PhA […])	Anti-Photogenotox. ([3]; CPZ 10 μg/mL, UVA, PhA […])	IR (mean ± SD) [3, 8]	IR (mean ± SD) [3, 9]	IR (mean ± SD) [3, 10]	IR (mean ± SD) [3, 11]	IR (mean ± SD) [3, 12]	IR (mean ± SD) [3, 13]	IR (mean ± SD) [2, 14]	IR (mean ± SD) [2, 15]	IR (mean ± SD) [2, 16]	IR (mean ± SD) [2, 17]	IR (mean ± SD) [2, 18]	IR (mean ± SD) [2, 19]	IR (mean ± SD) [2, 20]	IR (mean ± SD) [2, 21]	IR (mean ± SD) [2, 22]	IR (mean ± SD) [2, 23]	IR (mean ± SD) [2, 24]	IR (mean ± SD) [2, 25]	other results
O=C(/C=C/c1ccc(O)c(O)c1)O[C@@H]1C[C@](O)(C(=O)O)C[C@@H](O)[C@H]1O [CGA, Chlorogenic acid]	–	–	–	–	–	–	–	–	–	–	–	–	–	–	–	–	–	–	–	–	inhibition of MMC genotoxicity [1]: 65%
Nc1ccc2cc3ccccc3cc2c1 [2AA, 2-aminoanthracene]	–	–	–	–	–	–	–	–	–	–	–	–	–	–	–	–	–	–	–	–	IR (mean ± SD) ([2]; control: 2AA 1 μg/mL alone, +S9, experiments with PhAs): 3.37 ± 0.72; IR (mean ± SD) ([2]; control: 2AA 1 μg/mL alone, +S9, experiments with extracts): 4.5 ± 0.99; IR (mean ± SD) ([2]; control: 2AA 10 μg/mL alone, +S9, experiments with PhAs): 4 ± 1.3; IR (mean ± SD) ([2]; control: 2AA 10 μg/mL alone, +S9, experiments with extracts): 6 ± 1.5
CN(C)CCCN1c2ccccc2Sc2ccc(Cl)cc21 [CPZ, chlorpromazine]	–	–	–	–	–	–	–	–	–	–	–	–	–	–	–	–	–	–	–	–	IR (mean ± SD) ([3]; control: CPZ 5 μg/mL alone, UVA irradiation): 3.6 ± 0.40; IR (mean ± SD) ([3]; control: CPZ 10 μg/mL alone, UVA irradiation): 5.1 ± 0.78
O=C(O)/C=C/c1ccc(O)c(O)c1 [CA, caffeic acid]	11%	10%	3.3 ± 0.33	3.4 ± 0.25	3.2 ± 0.40	5 ± 1.2	4.9 ± 0.90	4.5 ± 0.49	1.0 ± 0.11	3 ± 1.0	3.1 ± 0.55	3.1 ± 0.29	3.1 ± 0.53	3.7 ± 0.77	3.8 ± 0.85	2.8 ± 0.60	3.4 ± 0.90	2.7 ± 0.34	3.2 ± 0.51	3.6 ± 0.89	Antigenotox. ([2]; 2AA 10 μg/mL, PhA concentration 1.25 (mg/mL)): 24%; IR (mean ± SD) [2, 26]: 3.7 ± 0.80; IR (mean ± SD) [4, 27]: 2.7 ± 0.81; IR (mean ± SD) [4, 28]: 2.3 ± 0.67; IR (mean ± SD) [4, 29]: 2.5 ± 0.75; IR (mean ± SD) [4, 30]: 5 ± 1.1; IR (mean ± SD) [4, 31]: 5 ± 1.2; IR (mean ± SD) [4, 32]: 5 ± 1.2; IR (mean ± SD) [5]: 1.1 ± 0.16; IR (mean ± SD) ([6]; PhA 5 μg/mL): 3.7 ± 0.69; IR (mean ± SD) ([6]; PhA 10 μg/mL): 3.9 ± 0.99; reduction of the number of revertants [7]: 28%
COc1cc(/C=C/C(=O)O)ccc1O [FA, ferulic acid]	20%	14%	3.0 ± 0.37	3.2 ± 0.20	3.0 ± 0.41	4.5 ± 0.73	4.3 ± 0.46	4 ± 1.1	1.1 ± 0.14	3.1 ± 0.73	2.7 ± 0.37	2.9 ± 0.66	2.8 ± 0.58	3.4 ± 0.96	4 ± 1.0	2.9 ± 0.43	3.1 ± 0.75	3.3 ± 0.63	3.2 ± 0.45	4 ± 1.3	Anti-Photogenotox. ([3]; CPZ 5 μg/mL, UVA, PhA 5 μg/mL): 15%; Anti-Photogenotox. ([3]; CPZ 5 μg/mL, UVA, PhA 10 μg/mL): 11%; Anti-Photogenotox. ([3]; CPZ 10 μg/mL, UVA, PhA 10 μg/mL): 15%; Antigenotox. ([2]; 2AA 1 μg/mL, PhA concentration 0.625 (mg/mL)): 19%; IR (mean ± SD) [2, 26]: 5 ± 1.4; IR (mean ± SD) [4, 27]: 2.5 ± 0.62; IR (mean ± SD) [4, 28]: 2.3 ± 0.51; IR (mean ± SD) [4, 29]: 2.6 ± 0.93; IR (mean ± SD) [4, 30]: 5 ± 1.2; IR (mean ± SD) [4, 31]: 5 ± 1.2; IR (mean ± SD) [4, 32]: 5 ± 1.2; IR (mean ± SD) [5]: 1.2 ± 0.10; IR (mean ± SD) ([6]; PhA 5 μg/mL): 3.6 ± 0.67; IR (mean ± SD) ([6]; PhA 10 μg/mL): 4.0 ± 0.70
